{
  "source": "patent US20250213503A1",
  "about": "“TREATMENT OF CANCER WITH S1P RECEPTOR AGONISTS” (PRIOTHERA SAS, priority 2022, published 2025)",
  "origin": "cited, not measured here",
  "target": "S1PR1 (Homo sapiens, UniProt P21453)",
  "sequence (P21453 whole entry, species assumed)": "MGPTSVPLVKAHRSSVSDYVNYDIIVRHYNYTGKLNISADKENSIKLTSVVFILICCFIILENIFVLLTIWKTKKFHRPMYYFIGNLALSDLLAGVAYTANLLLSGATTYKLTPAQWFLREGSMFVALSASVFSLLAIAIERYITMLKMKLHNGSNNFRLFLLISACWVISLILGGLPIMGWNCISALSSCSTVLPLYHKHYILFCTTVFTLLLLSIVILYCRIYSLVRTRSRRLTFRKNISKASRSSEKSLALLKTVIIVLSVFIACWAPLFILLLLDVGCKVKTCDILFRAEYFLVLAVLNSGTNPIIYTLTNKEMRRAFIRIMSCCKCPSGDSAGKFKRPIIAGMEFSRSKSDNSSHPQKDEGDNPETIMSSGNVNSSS",
  "data": [
    {"smiles": "CCCCCCCCc1ccc(CCC(N)(CO)CO)cc1", "note": "[FTY720]", "values": [
      {"measurement": "selectivity for S1PR1 versus S1PR3-5", "value": "poor selectivity for S1PR1 versus S1PR3-5"}
    ]}
  ]
}
